{
  "source": "patent US20090227503A1",
  "about": "“PARATHYROID HORMONE TREATMENT FOR ENHANCED ALLOGRAFT AND TISSUE-ENGINEERED RECONSTRUCTION OF BONE DEFECTS” (UNIVERSITY OF ROCHESTER, priority 2008, published 2009)",
  "key": {"[1]": {"test_system": "critical 4 mm femoral defects", "experiment": "PLA and PLA/βTCP scaffold reconstruction of critical 4 mm femoral defects, micro-CT and torsion (Example 2)", "assay_type": "in vivo, mouse", "excerpt": "(scale bars 25 in B & C represent 200 microns. Arrow head in panel C points to βTCP particles). Titanium pins 30 were passed through the lumen of the scaffolds 15 (panel D) to be used for fixation of the scaffolds when implanted as standalone femoral graft substitutes in critical 4 mm femoral defects in our previously established mouse model (see Example 1). The grafted animals were either treated with daily (5 days/week) injections of PTH or left untreated (Controls). […] When grafts were harvested at 9 weeks and following micro-CT imaging, scaffold-grafted femurs were tested in torsion at a rate of 1°/sec. […] The scaffold-grafted femurs were tested in torsion to determine their biomechanical properties, including maximum torque (panels A&B), torsional rigidity (panels C&D), and ultimate normalized rotation or twist (panels E&F). Panels A, C, and E show the average properties for both scaffold types in control and PTH treated animals. Panels B, D, and F show the maximum torque, torsional rigidity, and ultimate twist, respectively, of specimens that developed a bridging union compared to non-union control and PTH-treated specimens. Data are presented as mean+SEM. Asterisk indicates significant differences from control (p<0.05)."}, "[2]": {"test_system": "non-union tibial fracture", "experiment": "Union Area from clinical CT of a patient with non-union tibial fracture", "assay_type": "in vivo, human", "settings": "one patient, after 4 months of teriparatide treatment", "excerpt": "We used our custom MATLAB software to contour the segment of bone on one side of the fracture site similarly to contouring around the murine graft. The surface area forming union to the other side of the fracture was then estimated by the software. […] FIG. 12 illustrates clinical x-rays of an anonymous patient's fractured tibia before and after 4 months of teriparatide therapy, 160 and 165, respectively and CT scan data of the patient before and after 4 months of teriparatide therapy, 170 and 175, respectively; and Union Area, shown in grey in 170 and 175, of the patient before and after 4 months of teriparatide therapy, 180 and 185, respectively. The effects of teriparatide on fracture healing were quantified as a 2.8 fold increase in Union Area."}, "grafted femurs [3]": {"test_system": "grafted femurs", "experiment": "Mouse femoral allograft, micro-CT of grafted femurs (Example 4)", "assay_type": "in vivo, mice", "method": "Four-mm long bone allografts were harvested from donor mice, and were processed and implanted into […] defects 195 in the femur of other mice and secured in place using a stainless steel intramedullary pin 190, as shown in FIG. 13. One week after surgery, daily injections of 40 μg/kg hrPTH (1-34) (Lilly, Inc., Indianapolis, Ind.) were initiated in half of the mice, while the others received injections of saline control. Weekly x-rays were taken to monitor progression (Faxitron X-Ray LLC, Wheeling, Ill.). One cohort of the study groups used 14 mice from each treatment (PTH and control) for imaging and mechanical material testing and were sacrificed 6 weeks after surgery. Each femur was harvested by disarticulating the hip and knee and removing the intramedullary stainless-steel pin. Specimens were moistened with saline and frozen at -20° C. until thawed for micro-CT imaging and torsion testing. Specimens were scanned at […] isotropic resolution using the Scanco VivaCT 40 (Scanco Medical AG, Bassersdorf, Switzerland). From these 3D images, the graft and callus bone volumes (BVGraft, BVCallus) were measured by manual segmentation, followed by standardized thresholding at a grayscale corresponding to 750 mgHA/cm^3. The cross-sectional polar moment of […]) were computed for each slice throughout the grafted region and the maximum, minimum and average […]) were investigated to determine their contribution to the biomechanics of the grafted femurs. The Union Ratio was also calculated. The Union Ratio measures the graft surface area upon which mineralized callus has formed. If the voxels adjacent to the graft surface are boney callus, the area of that region of the graft is measured and normalized to the total graft surface area. Imaging data (not shown) indicated the bare surface of the graft in blue, with regions of union to the callus depicted as red. Each half (proximal and distal) of the graft was evaluated separately and the lesser ratio of union area to total graft surface area was given as the Union Ratio for that specimen. Callus formation that bridged from host-to-host over the graft was determined by evaluating serial axial cross sections from micro-CT images and given a binary result. These samples were then mechanically tested in torsion. Yield torque (TYield), ultimate torque (TUlt), torsional rigidity (TR), toughness (or work to failure) and the twist at ultimate torque were determined for each specimen. Finally, the mode of failure for each specimen was determined using an x-ray image analysis (not shown). Bone volume quantification was performed from micro-CT imaging. Quantification of micro-CT results for a control and PTH treated (FIGS. 16E-H) specimen was performed. Cross sectional polar moment of inertia, graft were determined. Callus and intramedullary callus bone volumes were quantified for each specimen in a region of interest that extended from the proximal axial slice containing bone graft through the distal slice. These regions were manually segmented and quantified for bone volume, bone mineral density and bone mineral content at a threshold corresponding to 750 mgHA/cm^3. The total depth of penetration of callus into the intramedullary cavity from both ends was also measured. The trabecular-like region within the shell of the exterior callus was segmented for trabecular analysis to quantify BVF, Tb.No., Tb.Th., and Tb.Sp."}, "grafted femurs [4]": {"test_system": "grafted femurs", "experiment": "Histology of grafted femurs (Example 4)", "assay_type": "in vivo, mice", "method": "A second cohort of 16 animals underwent the same surgery with sacrifice of 8 animals at 4 weeks and 8 animals at 6 weeks post-surgery to evaluate the degree of vascularization of the graft and callus region using vascular profusion as described previously (Duvall 2004). Half of the animals were treated with PTH, and the other half with saline. After micro-CT imaging for vascular analysis, specimens were processed for histology. Mid-sagittal sections were stained with alcian blue, hematoxylin, eosin and orange G. Micro-CT images were manually resliced using NIH ImageJ software in the same plane as the histology sections to compare the imaging modalities (data not shown)."}, "[5]": {"settings": "40 μg/kg hrPTH (1-34) daily from week 1, 6 weeks after surgery, mean, n = 14"}, "[6]": {"settings": "vs saline, 6 weeks after surgery"}},
  "data": [
    {"compound": "CC[C@H](C)[C@H](NC(=O)[C@H](CCC(=O)O)NC(=O)[C@H](CO)NC(=O)[C@@H](NC(=O)[C@@H](N)CO)C(C)C)C(=O)N[C@@H](CCC(N)=O)C(=O)N[C@@H](CC(C)C)C(=O)N[C@@H](CCSC)C(=O)N[C@@H](Cc1cnc[nH]1)C(=O)N[C@@H](CC(N)=O)C(=O)N[C@@H](CC(C)C)C(=O)NCC(=O)N[C@@H](CCCCN)C(=O)N[C@@H](Cc1cnc[nH]1)C(=O)N[C@@H](CC(C)C)C(=O)N[C@@H](CC(N)=O)C(=O)N[C@@H](CO)C(=O)N[C@@H](CCSC)C(=O)N[C@@H](CCC(=O)O)C(=O)N[C@@H](CCCN=C(N)N)C(=O)N[C@H](C(=O)N[C@@H](CCC(=O)O)C(=O)N[C@@H](Cc1c[nH]c2ccccc12)C(=O)N[C@@H](CC(C)C)C(=O)N[C@@H](CCCN=C(N)N)C(=O)N[C@@H](CCCCN)C(=O)N[C@@H](CCCCN)C(=O)N[C@@H](CC(C)C)C(=O)N[C@@H](CCC(N)=O)C(=O)N[C@@H](CC(=O)O)C(=O)N[C@H](C(=O)N[C@@H](Cc1cnc[nH]1)C(=O)N[C@@H](CC(N)=O)C(=O)N[C@@H](Cc1ccccc1)C(=O)O)C(C)C)C(C)C", "note": "[PTH, PTH (1-34)]", "values": [
      {"measurement": "animals that developed a mineralized callus bridging the defect (union)", "setting": "[1]; 9 weeks post-reconstruction, both scaffolds, daily (5 days/week) PTH, none in controls", "result": 30, "unit": "%"},
      {"measurement": "torsion behavior of bridged grafts", "setting": "[1]; 9 weeks, torsion at 1°/sec", "result": "prototypical brittle bone torsion behavior"},
      {"measurement": "biomechanical properties of scaffold-grafted femurs (maximum torque, torsional rigidity, ultimate twist)", "setting": "[1]; 9 weeks, vs control", "result": "improved the biomechanical properties of the scaffold-grafted femurs especially in femurs with bridging unions"},
      {"measurement": "volume of the mineralized callus", "setting": "[1]; PLA and PLA/βTCP scaffolds, 6 and 9 weeks post-reconstruction, vs control", "result": "increased the volume of the mineralized callus regardless of the scaffold type"},
      {"measurement": "increase in mineralized Union Area", "setting": "[2]", "result": 2.8, "unit": "fold"},
      {"measurement": "BMCCallus", "setting": "grafted femurs [3]; [5]", "result": 2.7, "unit": "mgHA"},
      {"measurement": "BMDCallus", "setting": "grafted femurs [3]; [5]", "result": 667, "unit": "mgHA/cc"},
      {"measurement": "BVCallus", "setting": "grafted femurs [3]; [5]", "result": 1.04, "unit": "mm^3/mm"},
      {"measurement": "BVGraft", "setting": "grafted femurs [3]; [5]", "result": 0.82, "unit": "mm^3/mm"},
      {"measurement": "BVIntramed", "setting": "grafted femurs [3]; [5]", "result": 0.2, "unit": "mm^3/mm"},
      {"measurement": "Callus Tb. N.", "setting": "grafted femurs [3]; [5]", "result": 13.2},
      {"measurement": "Callus Tb. Sp.", "setting": "grafted femurs [3]; [5]", "result": 0.065},
      {"measurement": "Callus Tb. Th.", "setting": "grafted femurs [3]; [5]", "result": 0.149},
      {"measurement": "Callus trabecular BVF", "setting": "grafted femurs [3]; [5]", "result": 0.576},
      {"measurement": "Intramed Penetration Depth", "setting": "grafted femurs [3]; [5]", "result": 2.22, "unit": "mm"},
      {"measurement": "PMIAve", "setting": "grafted femurs [3]; [5]", "result": 1.16, "unit": "mm^4"},
      {"measurement": "PMIMax", "setting": "grafted femurs [3]; [5]", "result": 2.17, "unit": "mm^4"},
      {"measurement": "PMIMin", "setting": "grafted femurs [3]; [5]", "result": 0.51, "unit": "mm^4"},
      {"measurement": "Union Ratio", "setting": "grafted femurs [3]; [5]", "result": 0.277},
      {"measurement": "ratio of callus BMCPTH:BMCSaline", "setting": "grafted femurs [3]; 6 weeks", "result": 1.67},
      {"measurement": "maximum outer radius of the callus", "setting": "grafted femurs [3]; 6 weeks, saline 1.8±0.2 mm", "result": "1.7±0.3", "unit": "mm"},
      {"measurement": "specimens with bridging over the graft from host-to-host", "setting": "grafted femurs [3]; 6 weeks, saline 6 of 14", "result": "8 of 14"},
      {"measurement": "Union Ratio greater in PTH treated animals", "setting": "grafted femurs [3]; across all samples, vs saline", "result": 2.8, "unit": "fold"},
      {"measurement": "Intramedullary penetration depth", "setting": "grafted femurs [3]; grafts from PTH-treated animals, saline 1.7±0.6 mm", "result": "2.2±0.7", "unit": "mm"},
      {"measurement": "Union Ratio of the single PTH-treated specimen of FIG. 15H", "setting": "grafted femurs [3]; one specimen, saline control specimen 0.02", "result": 0.31},
      {"measurement": "bone mineral density of the callus, less dense by", "setting": "grafted femurs [3]; vs saline, 6 weeks", "result": 14, "unit": "%"},
      {"measurement": "bone volume fraction within the callus, greater by", "setting": "grafted femurs [3]; vs saline, 6 weeks", "result": 52, "unit": "%"},
      {"measurement": "graft bone volume (graft resorption)", "setting": "grafted femurs [3]; vs saline, 6 weeks", "result": "not different between treatment groups"},
      {"measurement": "net callus total mineral content, greater by", "setting": "grafted femurs [3]; vs saline, 6 weeks", "result": 67, "unit": "%"},
      {"measurement": "increase in BVCallus", "setting": "grafted femurs [3]; [6]", "result": 93, "unit": "%"},
      {"measurement": "increase in BVIntramed", "setting": "grafted femurs [3]; [6]", "result": 217, "unit": "%"},
      {"measurement": "increase in PMIAve", "setting": "grafted femurs [3]; [6]", "result": 38, "unit": "%"},
      {"measurement": "increase in PMIMax", "setting": "grafted femurs [3]; [6]", "result": 26, "unit": "%"},
      {"measurement": "Union Ratio, greater by", "setting": "grafted femurs [3]; vs saline, 6 weeks, p<0.01", "result": 76, "unit": "%"},
      {"measurement": "Intramedullary penetration depth, greater by", "setting": "grafted femurs [3]; vs saline, p=0.12", "result": 28, "unit": "%"},
      {"measurement": "osteoclastic graft resorption", "setting": "grafted femurs [4]; PTH treatment for 6 weeks", "result": "did not stimulate osteoclastic graft resorption"},
      {"measurement": "cartilage formation at the site of bone injury", "setting": "grafted femurs [4]; persisted through 4 weeks after surgery", "result": "Cartilage formation was increased"}
    ]}
  ]
}
